Results reported in publication PMC8653149, “Cyclic Analogs of Desferrioxamine E Siderophore for ^68Ga Nuclear Imaging: Coordination Chemistry and Biological Activity in Staphylococcus aureus” (Inorganic Chemistry, 2021).

Assays:
Type in all cases: physicochemical
[1] = Cyclic voltammetry of Fe(III)-FOXE derivative complexes (redox potential, Fe(II) stability constants); conditions: for E1/2 vs NHE: CV; for E1/2 vs NHE / logβFe(II): [L] = 2 × 10^–3 M, M:L 1:1, pH = 7, T = 25 °C; for E°complex: [Fe(III)] = 2·10^-3 M, M:L ratio 1:1, pH = 7, T = 25°C, I = 0.1M NaClO4, glass-carbon working electrode; for logβFe(II): calculated from CV measurement
Procedure: Redox chemistry of Fe(III) species was determined in cyclic voltammetry (CV) assays. […] We have obtained quasireversible voltammograms for Fe(III)-FOXE analog complexes (Figure S8), with ΔE ranging from −369 mV to −470 mV. The values of E1/2 (Table 1) were recalculated vs normal hydrogen electrode (NHE). To ensure that only fully hexacoordinated complexes [FeL] were characterized, experiments were carried out at fixed pH = 7 where this form is dominating in solution. Higher strength of the complex (larger pM value) correlates to lower redox potential. This behavior was in agreement with previously reported data[61],[62] for similar complexation systems.
Redox potentials for Fe(III)-FOXE derivatives were determined using cyclic voltammetry with a VA 797 Computrace Voltammeter (Metrohm) equipped with glass-carbon, AgCl/Cl, and platinum wire electrodes. Concentration of the measured samples was [Fe(III)] = 2 × 10^–3, M:L ratio 1:1, at 25.0 ± 0.1 °C; pH 7.0 was provided by addition of a suitable amount of NaOH under control of a pH meter. The scan range was from −0.3 V to −1 V in a cycle: Fe(III)–FOX [drawing 1] Fe(II)–FOX [drawing 2] Fe(III)–FOX. Received data (Figure S8) was standardized for the NHE electrode. The electrochemical data were refined to obtain the overall Fe(II)-FOXE derivative binding constant (logβFe(II)L^–) by implementing the Nernst equation (S1).
Figure S8. CV voltammograms used to calculate (logβ) constants for studied complexes a with
Fe(II) ions: a) FOX 2-2, b) Fe-FOX 2-3, c) FOX 2-4, d) FOX 2-5, e) FOX 3-5
aConditions: [Fe(III)] = 2·10^-3 M, M:L ratio 1:1, pH = 7, T = 25°C, I = 0.1M NaClO 4 on glass-carbon working
For each complex the stability constant for Fe(II)-analog was calculated using eq. S10
E complex ― Eaq = ―59.15log (βII) (S10)
Table S9. E 1/2 and stability (logβ) constants for studied complexes with Fe(II) ions a […]

[2] = Ligand–ligand competition UV–vis titrations of Fe(III) complexes vs EDTA; conditions: [L] = 1.5·10^-4 M, M:L ratio 1:1, pH = 7, T = 25°C, I = 0.1 M NaClO4
Procedure: In this series of experiments, the stock solution of FOX ligand was divided into various batches followed by metal addition with a constant total volume of 2 mL, [Fe(III)] = 2 × 10^–4, and a metal-to-ligand molar ratio of 1:1. The EDTA ligand was added to a previously prepared series of solutions in increasing concentration, from a 0 to 10 molar excess for FOX 2-5 and from a 0 to 1.2 molar excess for the rest of the derivatives. pH was adjusted to ∼7 with the NaOH solution. After preparation, each solution was allowed to equilibrate for 3–7 days, depending on the investigated complex. Changes were observed between the collected spectra, and they were measured consequently until no further changes were present. The UV–vis spectra were recorded (Figure S4), and competition data were refined to obtain the overall Fe(III)-FOXE derivative binding constant (logβFe(III)L). The protonation constants of FOXE derivatives (Table S4) and formation constants for Fe(III)-FOXE derivative complex species (Table S5) were treated as fixed parameters in data analysis.
The spectrophotometric competition experiments with EDTA
The spectrophotometric competition experiments with EDTA were performed at fixed pH 7.0,
to compete effectively with the tris-hydroxamates for ferric ion at intermediate pH values (5-8)
if an excess of EDTA is used. The competition equilibrium is described by equations (S5) and
Fe IIIL  EDTA K  FeIII EDTA  L (S5)
[FeIII L][EDTA]  Fe(III)L (S6)
The competition data were refined to obtain the overall Fe(III)-FOX binding constant logβ FeL
(Table S7) for analogs using a model involving two ligands and one metal.
The concentration of Fe(III)-analog complex for each derivative, [FeL], was calculated from
the absorbance maximum at around 420 nm (where FeL is the only light-absorbing species) and
previously determined extinction coefficients. The concentrations of other species in equation
(S6) were calculated from mass balance equations using the experimental pH values:
[Fe]tot =  FeL[FeL] +  FeEDTA[FeEDTA]
[L]tot =  FeL[FeL] +  L[L]
[EDTA]tot =  FeEDTA[FeEDTA] +  EDTA[EDTA]
a is the usual Ringbom’s coefficient.

[3] = Ligand protonation constants by potentiometric titration; conditions: [L] = 1·10^-3 M, T = 25°C, I = 0.1 M NaClO4
Procedure: Potentiometric titrations were performed using an automatic titrator system Titrando 905 (Metrohm) equipped with a 800 Dosino dosing unit and a microburet with a volume of 2 mL. A combined glass electrode was calibrated each day for hydrogen ion concentration by 0.1 M HClO4 with CO2-free 0.1 M NaOH solutions. A stream of high purity grade argon, presaturated with water vapor, passed over the surface of the solution cell, filled with 3 mL of the studied solution. For each system, a minimum of four independent titrations was performed. The purity of ligand and accurate concentration of ligand solution were determined before each experiment with the Gran method[68] by potentiometric titration of the 3 mL sample of the ligand, with [L] ∼ 1 × 10^–3 M. In separate potentiometric titrations, the metal-to-ligand ratio was 1:1, and the concentration of metal was 2 × 10^–3 M. The potentiometric data were refined to obtain the overall Fe(III)-FOXE and Ga(III)-FOXE derivative binding constants (logβFe(III)L, logβGa(III)L). […]
Ligand’s protonation constants
The acid-base properties of investigated ligands were studied by potentiometric technique. The optimized logβ values defined by equations (S1) and (S2) were calculated using […] 1 […]
or Hyperquad 20062 programs (Table S4). For the sake of simplicity charges are omitted in all chemical equilibria given here.
Table S4. Protonation (logβ H) constants for studied ligandsa […]
aConstants determined from potentiometric titrations. Conditions: [L] = 1·10^-3 M, T = 25°C, I = 0.1 M NaClO 4, b Ref 3 […]

[4] = Fe(III) complex stability constants by potentiometric and pH-dependent UV–vis titrations; conditions: I = 0.1 M NaClO4; for logβ[FeHL]+ / logβ[FeL] / pKNHOH of Fe(III) complex: M:L 1:1, T = 25°C; for logβFe(III)L: potentiometric [L] = 1 × 10^–3 M and UV–vis 5 × 10^–5 M, M:L 1:1, T = 25 °C
[5] = UV-Vis pH-dependent titrations, 1·10^-4 M
[6] = potentiometric, [L] = 1·10^-3 M

SMILES | E1/2 vs NHE [1] | E°complex [1] [mV] | logβFe(II) [1] | logβ[FeL] [2] | protonation constant logβ, H2L + H+ ↔ H3L [3] | protonation constant logβ, HL + H+ ↔ H2L [3] | protonation constant logβ, L + H+ ↔ HL [3] | logβ[FeHL]+ [4, 5] | logβ[FeL] [4, 5] | pKNHOH of Fe(III) complex [4, 5] | logβFe(III)L [4] | logβ[FeL] [4, 6] | pKNHOH of Fe(III) complex [4, 6]
O=C1CCCN(O)C(=O)CCNC(=O)CCCN(O)C(=O)CCNC(=O)CCCN(O)C(=O)CCN1 [FOX 2-3] | –432 mv | -432 | 7.54 | 26.55 (3) | 27.71(1) | 19.27(1) | 9.94(1) | 30.44 (5) | 26.70 (9) | 3.74 | 27.22(2) | 27.22 (2) | 3.22
O=C1CCN(O)C(=O)CCNC(=O)CCN(O)C(=O)CCNC(=O)CCN(O)C(=O)CCN1 [FOX 2-2] | –369 mv | -369 | 7.48 | 26.57 (4) | 27.62(2) | 19.28(1) | 9.97(1) | 30.64 (6) |  |  | 25.92(8) | 25.92 (8) | 4.72

The next lines start with the values.

E1/2 vs NHE [1] | E°complex [1] [mV] | logβFe(II) [1] | logβ[FeL] [2] | protonation constant logβ, H2L + H+ ↔ H3L [3] | protonation constant logβ, HL + H+ ↔ H2L [3] | protonation constant logβ, L + H+ ↔ HL [3] | logβ[FeHL]+ [4, 5] | logβ[FeL] [4, 5] | pKNHOH of Fe(III) complex [4, 5] | logβFe(III)L [4] | logβ[FeL] [4, 6] | pKNHOH of Fe(III) complex [4, 6] | SMILES
–416 mv | -416 | 8.48 | 28.38 (1) | 27.79(1) | 19.53(1) | 10.19(1) |  | 28.59 (3) | 2.54 |  | 28.81 (1) | 2.32 | O=C1CCCCCN(O)C(=O)CCCNC(=O)CCCCCN(O)C(=O)CCCNC(=O)CCCCCN(O)C(=O)CCCN1 [FOX 3-5]
–452 mv | -452 | 11.29 | 28.81 (1) | 26.53(1) | 19.09(1) | 9.86(1) |  | 31.32 (8) |  |  |  |  | O=C1CCCCCN(O)C(=O)CCNC(=O)CCCCCN(O)C(=O)CCNC(=O)CCCCCN(O)C(=O)CCN1 [FOX 2-5]
–426 mv | -426 | 9.12 | 27.13 (1) | 27.64(1) | 19.21(1) | 9.93(1) | 30.83 (4) | 28.71 (7) | 2.12 | 28.71(7) |  |  | O=C1CCCCN(O)C(=O)CCNC(=O)CCCCN(O)C(=O)CCNC(=O)CCCCN(O)C(=O)CCN1 [FOX 2-4]
